Drawing on patent US10300061B2, “Aminothiazole compounds as protein kinase inhibitors” (priority 2017, dated 2019), this text covers IC50 and GI50 for 5 molecules.

In one experiment the target is T1, VEGFR2 (Homo sapiens, UniProt P35968).
T1 construct: The recombinant GST-VEGFR2 (residues V789-V1356) containing kinase domain; GST; made in house; host or cells: Sf9 insect cells
Nature of the experiment: VEGFR2 Kinase-Glo kinase assay. It is filed as biochemical. The note with it: GST-VEGFR2, 1 μM ATP, 30° C. 120 minutes. The procedure: The recombinant GST-VEGFR2 (residues V789-V1356) containing kinase domain was expressed in Sf9 insect cells. The kinase assay was carried out in 96-well plates with tested compound in a final volume of 50 μl reaction at 30° C. for 120 minutes with following components: 25 mM HEPES pH 7.4, 10 mM MgCl2, 4 mM MnCl2, 0.5 mM Na3VO4, 2 mM DTT, 0.02% Triton X100, 0.01% BSA, 1 μM ATP, 2 μM polyGlu4:Tyr peptide, 50˜100 ng recombinant VEGFR2. Following incubation, 50 μl Kinase-Glo Plus Reagent (Promega, Madison, Wis., USA) was added to each well and the mixture was incubated at 25° C. for 20 min. A 70-μL aliquot of each reaction mixture was transferred to a black microtiter plate and the luminescence was measured on Wallac Vector 1420 multilabel counter (PerkinElmer, Shelton, Conn., USA).
In general terms: Kinase-Glo measures the ATP left after a reaction by luminescence.

In the next experiment the test system is MOLM-13. Nature of the experiment: MOLM-13 MTS cell viability assay. The format is cell-based. Conditions: Homo sapiens, leukemia cell line, 72 hours. As for the experimental part:
(§1) A study was carried out as follows to evaluate in vitro anticancer activity of certain compounds prepared according to EXAMPLE 1 using cell lines and MTS cell viability assays (MTS represents 3-(4,5-dimethylthiazol-2-yl)-5-(3-carboxymethoxyphenyl)-2-(4-sulfophenyl)-2H-tetrazolium).
(§2) Leukemia cell lines MOLM-13, MV4:11, and Kasumin-1 were purchased from American Type Culture Collection (ATCC, Manassas, Va., USA). The human gastrointestinal stromal tumor GIST-T1 cell line was purchased from Cosmo Bio Co., LTD (Tokyo, Japan). All leukemia cell lines were maintained in RPMI 1640 medium supplemented with 10% fetal bovine serum (FBS), 10 U/ml penicillin, and 10 µg/ml streptomycin at 37° C. and 5% CO2. The cell line GIST-T1 was cultured in DMEM medium supplemented with 10% FBS, 0.01% nonessential amino acids, 10 U/ml penicillin, and 10 µg/ml streptomycin.
(§3) Cells were seeded in 96-well culture plates at a density of 1×10^4 cells/100 μl/well in triplicates and were treated for 72 hours with an indicated concentration of test compound ranging from 1 nM to 10 μM. Colorimetric CellTiter 96® Aqueous One Solution Cell Proliferation assay (MTS assay; Promega, Madison, Wis., USA) was used to determine the cytotoxicity. The optical density at 492 nm was measured using a microplate photometer (Victor2; Perkin-Elmer, Waltham, Mass., USA). IC50 values were determined by MTS assay when cells were treated with test compound for 72 hours and calculated with GraphPad Prism 6. Each experiment was in triplicate.
On the technique in general: Tetrazolium dyes change colour on reduction, which living cells bring about.

In another experiment the test system is MV4:11. In words: MV4:11 MTS cell viability assay. Conditions: Homo sapiens, leukemia cell line, 72 hours. It is filed as cell-based. As for the experimental part: as §1, §2, §3
Another experiment has as its system Kasumi-1. Nature of the experiment: Kasumi-1 MTS cell viability assay. The format is cell-based. The note with it: Homo sapiens, leukemia cell line, 72 hours. The procedure:
as §1, §2, §3

The subject of another experiment is GIST-T1. In words: GIST-T1 MTS assay. It is filed as cell-based. The note with it: Homo sapiens, GISTT1; gastrointestinal stromal tumor cell line, 72 hours. As for the experimental part: as §1, §2
as §3, with “GIST-T1 cells” for “Cells”, “8000” for “1×10^4”

In the next experiment the test system is GIST430. In words: GIST430 cell proliferation assay. It is filed as cell-based. The note with it: Homo sapiens, 120 hours. The procedure:
(§4) GIST882, GIST48 and GIST430 cells were all cultured in incubators maintained at 37° C. and 5% CO2. GIST882 was cultured in RPMI-1640 supplemented with 20% fetal bovine serum (FBS). GIST48 was cultured with F10 supplemented with 20% FBS, 0.5% Mito, serum extender (BD Bioscience, 355006) and 1% pituitary extract bovine (BD Bioscience 354123). GIST430 was cultured in IMDM supplemented with 20% FBS. GIST882, GIST430 and GIST48 cells were provided by Dr. Jonathan A. Fletcher (Harvard Medical School, US).
(§5) GIST cells (4×10^4) were treated with different dosage of compounds. The treated GIST882 cells were incubated for 144 hours and GIST48 and GIST430 cells were incubated for 120 hours at 37° C. in 5% CO2. Cell proliferation was determined by incubating the cells with […] (Clontech, Calif., US) for 1 hour. The absorbance was measured at 450 nm using SpectraMax M5 microplate reader (Molecular Devices, US).

The test system of the next experiment is GIST48. In words: GIST48 cell proliferation assay. It is filed as cell-based. The note with it: Homo sapiens, 120 hours. As for the experimental part:
as §4, §5

The test system of another experiment is GIST882. In words: GIST882 cell proliferation assay. The format is cell-based. The note with it: Homo sapiens, 144 hours. As for the experimental part:
as §4, §5

Structures are written as SMILES. pIC50: −log10 of the molar value. Structures can show the parent of a compound that is named as a salt. Some results are limits rather than exact numbers.

The pIC50 is the negative decadic logarithm of the IC50, by convention in mol/L. Read a high pIC50 as a small IC50. The term GI50 denotes the concentration that inhibits growth by half. A higher GI50 goes with less potent growth inhibition.

T1 sequence (P35968 789-1356): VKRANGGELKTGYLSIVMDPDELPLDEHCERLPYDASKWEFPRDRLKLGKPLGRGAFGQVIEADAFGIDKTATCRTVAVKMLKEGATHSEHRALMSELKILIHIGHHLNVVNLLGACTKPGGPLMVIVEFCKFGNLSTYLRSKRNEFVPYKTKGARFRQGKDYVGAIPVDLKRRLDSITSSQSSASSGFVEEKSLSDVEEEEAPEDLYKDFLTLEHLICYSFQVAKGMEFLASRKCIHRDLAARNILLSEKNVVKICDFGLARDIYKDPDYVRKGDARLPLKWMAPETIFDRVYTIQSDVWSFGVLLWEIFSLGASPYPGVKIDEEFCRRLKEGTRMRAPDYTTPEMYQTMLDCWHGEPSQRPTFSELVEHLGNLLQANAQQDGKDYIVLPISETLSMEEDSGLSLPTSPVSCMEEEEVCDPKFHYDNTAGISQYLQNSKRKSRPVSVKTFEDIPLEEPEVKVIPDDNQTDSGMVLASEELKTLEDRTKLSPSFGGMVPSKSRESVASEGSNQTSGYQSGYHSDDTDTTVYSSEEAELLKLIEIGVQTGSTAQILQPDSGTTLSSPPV

`CCN1CCN(c2cc(Nc3ncc(-c4ccncc4)s3)nc(C)n2)CC1` [Compound 1, [6-(4-Ethyl-piperazin-1-yl)-2-methyl-pyrimidin-4-yl]-(5-pyridin-4-yl-thiazol-2-yl)-amine hydrochloride salt] gave a pIC50 against VEGFR2 above 7.52. For the same molecule, the GI50 stood at 10 nM with MOLM-13; 13 nM in the experiment with MV4:11; 11 nM with Kasumi-1; 11 nM in the experiment on GIST-T1; 3.8 nM in the experiment with GIST430; 19 nM in the experiment with GIST48. Besides, it took 5 nM to inhibit growth in the experiment with GIST882 by half (GI50).

As to `CCN1CCN(c2cc(Nc3ncc(-c4cccnc4)s3)nc(C)n2)CC1` [Compound 7, [6-(4-Ethyl-piperazin-1-yl)-2-methyl-pyrimidin-4-yl]-(5-pyridin-3-yl-thiazol-2-yl)-amine hydrochloride salt], the GI50 in the experiment with MOLM-13 was 62 nM; in the experiment on MV4:11, 34 nM; with Kasumi-1 it was 266 nM; in the experiment with GIST-T1, 53 nM; in the experiment on GIST430, 60 nM; in the experiment on GIST48, 820 nM. Also, growth in the experiment with GIST882 was halved (GI50) at 20 nM.

As for `Cc1nc(Nc2ncc(-c3cccnc3)s2)cc(N2CCN(CCO)CC2)n1` [Compound 9, 2-{4-[2-Methyl-6-(5-pyridin-3-yl-thiazol-2-ylamino)-pyrimidin-4-yl]-piperazin-1-yl}-ethanol hydrochloride salt], the pIC50 at VEGFR2 is above 7.52.

`Cc1nc(Nc2ncc(-c3cccnc3)s2)cc(N2CCC(N(C)C)CC2)n1` [Compound 10, [6-(4-Dimethylamino-piperidin-1-yl)-2-methyl-pyrimidin-4-yl]-(5-pyridin-3-yl-thiazol-2-yl)-amine hydrochloride salt]: the pIC50 on VEGFR2 is above 7.52.

With `CCN1CCN(c2cc(Nc3ncc(-c4cncnc4)s3)nc(C)n2)CC1` [Compound 12, [6-(4-Ethyl-piperazin-1-yl)-2-methyl-pyrimidin-4-yl]-(5-pyrimidin-5-yl-thiazol-2-yl)-amine hydrochloride salt], the GI50 in the experiment with MOLM-13 came out at 211 nM; with MV4:11, 132 nM; in the experiment on Kasumi-1, 349 nM; in the experiment with GIST-T1, 119 nM.
